{"source": "patent US8741951B2", "about": "“Non-steroidal compounds for androgen receptor modulation” (CNR—Consiglio Nazionale delle Ricerche, priority 2009, dated 2014)", "system": "human CW22-RV1 prostate carcinoma xenograft", "experiment": "In vivo antitumor activity, CW22-RV1 xenograft s.c. in nude mice", "procedure": "CW-22Rv1, a human prostate carcinoma epithelial cell line were purchased from ATCC.\nIn vivo antitumor activity experiments with the compound (R)-XXIII-6 were carried out using female athymic Swiss nude mice 8 to 10 weeks of age (Charles River, Calco, Italy). Mice were maintained in laminar flow rooms, keeping temperature and humidity constant. Mice had free access to food and water. Experiments were approved by the Ethics Committee for Animal Experimentation of the Istituto Nazionale Tumori (Milan, Italy).\nHuman CW22-RV1 cells, a human prostate carcinoma epithelial cell line, derived from a xenograft that was serially propagated in mice after castration-induced regression and relapse of the parental, androgen-dependent CWR22 xenograft, were used for in vivo experiments. The prostate carcinoma cell line were inoculated by subcutaneous injection (s.c.) in the right flank of nude mice, at day 0. Treatment started at day 3 when tumor weights were around 60 mg.\nThe efficacy of the drug treatment was assessed as: (a) TWI % in treated versus control mice, calculated as TWI=100−(mean TW treated/mean TW control×100).\nThe toxicity of the drug treatment was assessed as: (a) BWL calculated as BWL=100−(mean BWdayx/mean BWday1×100), where day 1 is the first day of treatment and day x is any day after (mice were weighed twice/week throughout the experimental frame and in the table 3 the maximum BWL value was reported); and (b) lethal toxicity, i.e., any death in treated groups occurring before any control death (mice were inspected daily for mortality).", "note": "Entries after “also recorded” stand apart in the source; their conditions may differ.", "data": [{"compound": "N#Cc1ccc(NC(=O)[C@](O)(Cc2cccs2)CS(=O)(=O)c2ccc(F)cc2)cc1C(F)(F)F", "note": "[(R)-XXIII-6]", "values": [{"measurement": "Tox/Tot (deaths in treated mice before any control death)", "setting": "100 mg/Kg p.o.", "value": "0/6"}, {"measurement": "day of Max TWI % (day after tumor inoculum)", "setting": "100 mg/Kg p.o.", "value": 23, "unit": "days"}, {"measurement": "Max TWI %", "setting": "100 mg/Kg p.o., (qdx5/wx2w) × 2 cycles", "value": 45, "unit": "%"}, {"measurement": "Max BWL (maximum body weight loss in percentage)", "setting": "100 mg/Kg p.o., during drug treatment", "value": 2, "unit": "%"}, {"measurement": "tolerability, in words", "setting": "100 mg/kg p.o.", "value": "generally well tolerated, with no signs of acute or delayed toxicity"}, {"measurement": "antitumor activity / tumor weight, in words", "setting": "100 mg/kg p.o., versus untreated mice", "value": "significant reduction in tumor weight; also recorded: effective in slowing tumor growth"}]}]}
